According to patent US4175125A, “Method for treating methicillin resistant staphylococcus aureus” (Eli Lilly and Company, priority 1978, dated 1979):
In brackets after ≈: the same amount, converted by molar mass.

Assays:
[1] = system: Staphylococcus aureus cultures; assay: Agar dilution susceptibility test, phenylthioacetyl cephalosporins vs methicillin resistant S. aureus (Example 9); format: cell-based; settings: for MIC: Staphylococcus aureus, read-out: MIC
Text: This example compares the antibiotic activities of three known compounds, methicillin, cephalothin, and cephaloridine, with three compounds from the above examples, in terms of minimum inhibitory concentration (MIC) values in microgram/milliliter units against various isolates of Staphylococcus aureus cultures. The culture numbers and the procedures used to obtain the reported data are disclosed by W. E. Wick and D. A. Preston in their article "Heterogeneous Methicillin-Resistant Staphylococcus Aureus" which appeared in Progress in Antimicrobial And Anticancer Chemotherapy, Proceedings of the 6th International Congress of Chemotherapy, Volume, 1, U. of Tokyo Press, Tokyo, (1970). In these agardilution susceptibility tests, the inocula were diluted to 10^3 bacteria per spot. Cultures 3055 (benzylpenicillin sensitive) and H232 (benzylpenicillin-resistant) are controls. The remaining cultures are methicillin-resistant, and, except for 3136, are clinical isolates. Culture 3136 is a 4th transfer laboratory selected mutant.

[2] = system: Staphylococcus aureus cultures; assay: Broth dilution MIC in trypticase soy broth, low and high NaCl (Example 10); format: cell-based; settings: Staphylococcus aureus, TSB, read-out: MIC
Procedure: This example compares the antibiotic activities of methicillin, cephalothin and cephaloridine with the compounds of Examples 1, 2 and 3, in broth dilution tests. The MIC values, in μg/ml., are against the same Staphylococcus aureus cultures described in Example 9, except that in this example the cultures were grown in trypticase soy broth (TSB). Growing the cultures in two broth cultures, one having a low (0.5 percent) sodium chloride content and one having a high (5.0 percent) sodium chloride content is said to assist in identifying the methicillin-resistant cultures from those which are not methicillin-resistant. […] See Chabbert, Y. A., 1967 Postgrad. Med. J., 43 (suppl); 40-46. One expects that similar changes in MIC values for this type of culture to other β-lactam antibiotics, e.g., various penicillins and cephalosporins, to have similar implications. […] That is, methicillin-resistant S.aureus cultures are susceptible to the cephalosporin antibiotics used in this invention.

[3] = culture 3055 (control, benzylpenicillin sensitive), table part marked b
[4] = culture 3055 (control, benzylpenicillin sensitive), table part marked c
[5] = culture 3130, table part marked b
[6] = culture 3130, table part marked c
[7] = culture 3131, table part marked b
[8] = culture 3131, table part marked c
[9] = culture 3132, table part marked b
[10] = culture 3132, table part marked c
[11] = culture 3133, table part marked b
[12] = culture 3133, table part marked c
[13] = culture 3134, table part marked b
[14] = culture 3134, table part marked c
[15] = culture 3135, table part marked b
[16] = culture 3135, table part marked c
[17] = culture 3136, table part marked b
[18] = culture 3136, table part marked c
[19] = culture 3137, table part marked b
[20] = culture 3137, table part marked c
[21] = culture 3138, table part marked b
[22] = culture 3138, table part marked c
[23] = culture 3139, table part marked b
[24] = culture 3139, table part marked c
[25] = culture (Seattle) 966, table part marked b
[26] = culture (Seattle) 966, table part marked c
[27] = culture H232 (control, benzylpenicillin-resistant), table part marked b
[28] = culture H232 (control, benzylpenicillin-resistant), table part marked c
[29] = culture Kavarmark 1138501, table part marked b
[30] = culture Kavarmark 1138501, table part marked c
[31] = culture S61, table part marked b
[32] = culture S61, table part marked c
[33] = culture 3132 (first column so headed), table part marked b
[34] = culture 3132 (first column so headed), table part marked c
[35] = culture 3132 (second column so headed), table part marked b
[36] = culture 3132 (second column so headed), table part marked c
[37] = culture Kavarnick 1138501, table part marked b
[38] = culture Kavarnick 1138501, table part marked c

CC(=O)OCC1=C(C(=O)O)N2C(=O)C(NC(=O)CSc3cc(Cl)ccc3Cl)C2SC1 (stereo not drawn) [Example 2, 7-(2,5-Dichlorophenylthioacetamido)-cephalosporanic acid]
MIC [1, 3]: < 0.06 µg/mL | MIC [1, 4]: < 0.06 µg/mL | MIC [1, 5]: 0.5 µg/mL (≈ 1.02 µM) | MIC [1, 6]: 2 µg/mL (≈ 4.07 µM) | MIC [1, 7]: 0.5 µg/mL (≈ 1.02 µM) | MIC [1, 8]: 1 µg/mL (≈ 2.04 µM) | MIC [1, 9]: 0.5 µg/mL (≈ 1.02 µM) | MIC [1, 10]: 0.5 µg/mL (≈ 1.02 µM) | MIC [1, 11]: 1 µg/mL (≈ 2.04 µM) | MIC [1, 12]: 2 µg/mL (≈ 4.07 µM) | MIC [1, 13]: 1 µg/mL (≈ 2.04 µM) | MIC [1, 14]: 2 µg/mL (≈ 4.07 µM) | MIC [1, 15]: 0.5 µg/mL (≈ 1.02 µM) | MIC [1, 16]: 1 µg/mL (≈ 2.04 µM) | MIC [1, 17]: 0.5 µg/mL (≈ 1.02 µM) | MIC [1, 18]: 1 µg/mL (≈ 2.04 µM) | MIC [1, 19]: 2 µg/mL (≈ 4.07 µM) | MIC [1, 20]: 4 µg/mL (≈ 8.14 µM) | MIC [1, 21]: 1 µg/mL (≈ 2.04 µM) | MIC [1, 22]: 1 µg/mL (≈ 2.04 µM) | MIC [1, 23]: 1 µg/mL (≈ 2.04 µM) | MIC [1, 24]: 0.5 µg/mL (≈ 1.02 µM) | MIC [1, 25]: 0.5 µg/mL (≈ 1.02 µM) | MIC [1, 26]: 0.25 µg/mL (≈ 0.509 µM) | MIC [1, 27]: < 0.06 µg/mL | MIC [1, 28]: < 0.06 µg/mL | MIC [1, 29]: 0.5 µg/mL (≈ 1.02 µM) | MIC [1, 30]: 1 µg/mL (≈ 2.04 µM) | MIC [1, 31]: 0.5 µg/mL (≈ 1.02 µM) | MIC [1, 32]: 1 µg/mL (≈ 2.04 µM) | effectiveness in in vitro tests vs methicillin, cephalothin and cephaloridine ([1]; various cultures of methicillin-resistant Staphylococcus aureus): substantially more effective than methicillin, cephalothin, and cephaloridine | MIC ([2]; culture 3055 (control), table part marked b): 0.06 µg/mL (≈ 0.122 µM) | MIC ([2]; culture 3055 (control), table part marked c): 0.06 µg/mL (≈ 0.122 µM) | MIC [2, 5]: 1 µg/mL (≈ 2.04 µM) | MIC [2, 6]: 8 µg/mL (≈ 16.3 µM) | MIC [2, 7]: < 0.5 µg/mL | MIC [2, 8]: 2 µg/mL (≈ 4.07 µM) | MIC [2, 33]: < 0.5 µg/mL | MIC [2, 34]: 2 µg/mL (≈ 4.07 µM) | MIC [2, 35]: < 0.5 µg/mL | MIC [2, 36]: 2 µg/mL (≈ 4.07 µM) | MIC [2, 13]: 2 µg/mL (≈ 4.07 µM) | MIC [2, 14]: 4 µg/mL (≈ 8.14 µM) | MIC [2, 15]: < 0.5 µg/mL | MIC [2, 16]: 2 µg/mL (≈ 4.07 µM) | MIC [2, 17]: 0.25 µg/mL (≈ 0.509 µM) | MIC [2, 18]: 4 µg/mL (≈ 8.14 µM) | MIC [2, 19]: 2 µg/mL (≈ 4.07 µM) | MIC [2, 20]: 4 µg/mL (≈ 8.14 µM) | MIC [2, 21]: 2 µg/mL (≈ 4.07 µM) | MIC [2, 22]: 2 µg/mL (≈ 4.07 µM) | MIC [2, 23]: 0.5 µg/mL (≈ 1.02 µM) | MIC [2, 24]: < 0.5 µg/mL | MIC [2, 25]: 0.5 µg/mL (≈ 1.02 µM) | MIC [2, 26]: 2 µg/mL (≈ 4.07 µM) | MIC ([2]; culture H232 (control), table part marked b): 0.12 µg/mL (≈ 0.244 µM) | MIC ([2]; culture H232 (control), table part marked c): 0.25 µg/mL (≈ 0.509 µM) | MIC [2, 37]: 0.5 µg/mL (≈ 1.02 µM) | MIC [2, 38]: 2 µg/mL (≈ 4.07 µM) | MIC [2, 31]: 0.5 µg/mL (≈ 1.02 µM) | MIC [2, 32]: 2 µg/mL (≈ 4.07 µM) | MIC ([2]; culture S, table part marked b): 0.5 µg/mL (≈ 1.02 µM) | MIC ([2]; culture S, table part marked c): 2 µg/mL (≈ 4.07 µM)

O=C(Cc1cccs1)N[C@@H]1C(=O)N2C(C(=O)[O-])=C(C[n+]3ccccc3)CS[C@H]12 [Cephaloridine, cephaloridine, reference compound]
MIC [1, 3]: < 0.06 µg/mL | MIC [1, 4]: 0.25 µg/mL (≈ 0.602 µM) | MIC [1, 5]: 4 µg/mL (≈ 9.63 µM) | MIC [1, 6]: 8 µg/mL (≈ 19.3 µM) | MIC [1, 7]: 1 µg/mL (≈ 2.41 µM) | MIC [1, 8]: 16 µg/mL (≈ 38.5 µM) | MIC [1, 9]: 2 µg/mL (≈ 4.81 µM) | MIC [1, 10]: 2 µg/mL (≈ 4.81 µM) | MIC [1, 11]: 4 µg/mL (≈ 9.63 µM) | MIC [1, 12]: 16 µg/mL (≈ 38.5 µM) | MIC [1, 13]: 8 µg/mL (≈ 19.3 µM) | MIC [1, 14]: 16 µg/mL (≈ 38.5 µM) | MIC [1, 15]: 1 µg/mL (≈ 2.41 µM) | MIC [1, 16]: 8 µg/mL (≈ 19.3 µM) | MIC [1, 17]: 0.25 µg/mL (≈ 0.602 µM) | MIC [1, 18]: 16 µg/mL (≈ 38.5 µM) | MIC [1, 19]: 8 µg/mL (≈ 19.3 µM) | MIC [1, 20]: 32 µg/mL (≈ 77 µM) | MIC [1, 21]: 8 µg/mL (≈ 19.3 µM) | MIC [1, 22]: 16 µg/mL (≈ 38.5 µM) | MIC [1, 23]: 1 µg/mL (≈ 2.41 µM) | MIC [1, 24]: 4 µg/mL (≈ 9.63 µM) | MIC [1, 25]: 0.25 µg/mL (≈ 0.602 µM) | MIC [1, 26]: 0.25 µg/mL (≈ 0.602 µM) | MIC [1, 27]: < 0.06 µg/mL | MIC [1, 28]: < 0.06 µg/mL | MIC [1, 29]: 1 µg/mL (≈ 2.41 µM) | MIC [1, 30]: 4 µg/mL (≈ 9.63 µM) | MIC [1, 31]: 4 µg/mL (≈ 9.63 µM) | MIC [1, 32]: 16 µg/mL (≈ 38.5 µM) | MIC [2, 7]: 2 µg/mL (≈ 4.81 µM) | MIC [2, 8]: 16 µg/mL (≈ 38.5 µM) | MIC [2, 33]: 2 µg/mL (≈ 4.81 µM) | MIC [2, 34]: 16 µg/mL (≈ 38.5 µM) | MIC [2, 35]: 1 µg/mL (≈ 2.41 µM) | MIC [2, 36]: 16 µg/mL (≈ 38.5 µM) | MIC [2, 15]: 2 µg/mL (≈ 4.81 µM) | MIC [2, 16]: 16 µg/mL (≈ 38.5 µM) | MIC [2, 17]: < 0.5 µg/mL | MIC [2, 18]: 16 µg/mL (≈ 38.5 µM) | MIC [2, 19]: 8 µg/mL (≈ 19.3 µM) | MIC [2, 20]: 32 µg/mL (≈ 77 µM) | MIC [2, 21]: 4 µg/mL (≈ 9.63 µM) | MIC [2, 22]: 16 µg/mL (≈ 38.5 µM) | MIC [2, 23]: 1 µg/mL (≈ 2.41 µM) | MIC [2, 24]: 8 µg/mL (≈ 19.3 µM) | MIC [2, 25]: 4 µg/mL (≈ 9.63 µM) | MIC [2, 26]: 8 µg/mL (≈ 19.3 µM) | MIC [2, 37]: 2 µg/mL (≈ 4.81 µM) | MIC [2, 38]: 16 µg/mL (≈ 38.5 µM) | MIC [2, 31]: 4 µg/mL (≈ 9.63 µM) | MIC [2, 32]: 64 µg/mL (≈ 154 µM) | MIC ([2]; culture S, table part marked b): 4 µg/mL (≈ 9.63 µM) | MIC ([2]; culture S, table part marked c): 16 µg/mL (≈ 38.5 µM)
